Test results from ChEMBL document CHEMBL3044948, “Synthesis and Herbicidal Activity of N-(1-Arylethenyl)-2-chloroacetamides” (Agric Biol Chem, 1991).
Calls of active or inactive are those of the source. The rule behind the calls is not given here.

Assays:
Echinochloa oryzicola [1] = assay: Herbicidal activity against Echinochloa oryzicola at 10 g a.i/a measured after 3 weeks; type: functional, organism-based
Echinochloa oryzicola [2] = assay: Herbicidal activity against Echinochloa oryzicola at 1 g a.i/a measured after 3 weeks; type: functional, organism-based

## CCCN(C(=O)CCl)C(=C(C)C)c1ccccc1
Echinochloa oryzicola [1]
  Activity: Active
Echinochloa oryzicola [2]
  Activity: inactive

## C=C(c1ccco1)N(C(=O)CCl)c1c(C)cccc1C
Echinochloa oryzicola [1]
  Activity: Active

## CC(C)=C(c1ccccc1)N(Cc1ccco1)C(=O)CCl
Echinochloa oryzicola [1]
  Activity: Active
Echinochloa oryzicola [2]
  Activity: Active

## CC=C(c1ccccc1)N(C(=O)CCl)c1c(C)cccc1C (mixture of isomers)
Echinochloa oryzicola [1]
  Activity: Active
Echinochloa oryzicola [2]
  Activity: inactive

## CC(C)=C(c1ccccc1)N(C(=O)CCl)c1ccc(Cl)cc1
Echinochloa oryzicola [1]
  Activity: Active

## CC(C)=C(c1ccccc1)N(Cc1ccccc1)C(=O)CCl
Echinochloa oryzicola [1]
  Activity: Active
Echinochloa oryzicola [2]
  Activity: Active

## C=C(c1ccccc1)N(C(=O)CCl)c1ccccc1C
Echinochloa oryzicola [1]
  Activity: inactive

## C=C(c1ccccc1C)N(C(=O)CCl)c1c(C)cccc1C
Echinochloa oryzicola [1]
  Activity: Active
Echinochloa oryzicola [2]
  Activity: Active

## C=C(c1cccn1C)N(C(=O)CCl)c1c(C)cccc1C
Echinochloa oryzicola [1]
  Activity: inactive

## C=CCN(C(=O)CCl)/C(=C/C)c1ccccc1
Echinochloa oryzicola [1]
  Activity: Active
Echinochloa oryzicola [2]
  Activity: inactive

## C=C(c1ccccc1OC)N(C(=O)CCl)c1c(C)cccc1C
Echinochloa oryzicola [1]
  Activity: Active
Echinochloa oryzicola [2]
  Activity: Active

## C=C(c1ccc(C#N)cc1)N(C(=O)CCl)c1c(C)cccc1C
Echinochloa oryzicola [1]
  Activity: Active
Echinochloa oryzicola [2]
  Activity: inactive

## C=CCN(C(=O)CCl)C(=C(C)C)c1ccccc1
Echinochloa oryzicola [1]
  Activity: Active
Echinochloa oryzicola [2]
  Activity: Active

## C=C(c1ccccc1)N(C(=O)CCl)c1ccccc1OC
Echinochloa oryzicola [1]
  Activity: Active

## C=C(c1cccc([N+](=O)[O-])c1)N(C(=O)CCl)c1c(C)cccc1C
Echinochloa oryzicola [1]
  Activity: Active

## C=C(c1ccccc1)N(C(=O)CCl)c1cccc2ccccc12
Echinochloa oryzicola [1]
  Activity: inactive

## CCC(C)N(C(=O)CCl)C(=C(C)C)c1ccccc1 (stereo not given)
Echinochloa oryzicola [1]
  Activity: inactive

## C=C(c1ccccc1)N(C(=O)CCl)c1ccccc1
Echinochloa oryzicola [1]
  Activity: inactive

## C=C(c1cccc(Br)c1)N(C(=O)CCl)c1c(C)cccc1C
Echinochloa oryzicola [1]
  Activity: Active
Echinochloa oryzicola [2]
  Activity: inactive

## CC(C)=C(c1ccccc1)N(CC(C)C)C(=O)CCl
Echinochloa oryzicola [1]
  Activity: inactive

## C=C(c1ccc(Cl)cc1)N(C(=O)CCl)c1c(C)cccc1C
Echinochloa oryzicola [1]
  Activity: Active
Echinochloa oryzicola [2]
  Activity: inactive

## CC(C)=C(c1ccccc1)N(C(=O)CCl)c1c(C)cccc1C
Echinochloa oryzicola [1]
  Activity: inactive

## C=C(c1ccccc1Cl)N(C(=O)CCl)c1c(C)cccc1C
Echinochloa oryzicola [1]
  Activity: Active
Echinochloa oryzicola [2]
  Activity: Active

## C=C(c1ccccc1)N(C(=O)CCl)c1c(CC)cccc1CC
Echinochloa oryzicola [1]
  Activity: Active
Echinochloa oryzicola [2]
  Activity: inactive

## C=C(c1ccccc1)N(C(=O)CCl)c1c(C)cccc1C
Echinochloa oryzicola [1]
  Activity: Active
Echinochloa oryzicola [2]
  Activity: Active

## C/C=C(\c1ccccc1)N(CCCC)C(=O)CCl
Echinochloa oryzicola [1]
  Activity: Active
Echinochloa oryzicola [2]
  Activity: inactive

## C=C(c1ccc2ccccc2c1)N(C(=O)CCl)c1c(C)cccc1C
Echinochloa oryzicola [1]
  Activity: inactive

## CC(C)=C(c1ccccc1)N(C(=O)CCl)C(C)C
Echinochloa oryzicola [1]
  Activity: Active

## CC(C)=C(c1ccccc1)N(C(=O)CCl)c1ccccc1
Echinochloa oryzicola [1]
  Activity: inactive

## C=C(c1ccc(Cl)c(Cl)c1)N(C(=O)CCl)c1c(C)cccc1C
Echinochloa oryzicola [1]
  Activity: inactive

## CCCCCCN(C(=O)CCl)C(=C(C)C)c1ccccc1
Echinochloa oryzicola [1]
  Activity: Active
Echinochloa oryzicola [2]
  Activity: Active

## C=C(c1ccccc1)N(CC1CCCO1)C(=O)CCl (stereo not given)
Echinochloa oryzicola [1]
  Activity: Active

## C=C(c1ccc(SC)s1)N(C(=O)CCl)c1c(C)cccc1C
Echinochloa oryzicola [1]
  Activity: inactive

## C=C(c1ccccc1)N(C(=O)CCl)c1c(Cl)cccc1Cl
Echinochloa oryzicola [1]
  Activity: inactive

## C=C(c1ccccc1)N(C(=O)CCl)c1cc(C)nn1C
Echinochloa oryzicola [1]
  Activity: inactive

## C=C(c1ccccc1)N(C(=O)CCl)c1c(C)cccc1CC
Echinochloa oryzicola [1]
  Activity: Active
Echinochloa oryzicola [2]
  Activity: Active

## CC(C)=C(c1ccccc1)N(C)C(=O)CCl
Echinochloa oryzicola [1]
  Activity: Active
Echinochloa oryzicola [2]
  Activity: Active

## C=C(c1ccc(OC)cc1)N(C(=O)CCl)c1c(C)cccc1C
Echinochloa oryzicola [1]
  Activity: Active
Echinochloa oryzicola [2]
  Activity: inactive

## C=C(c1ccc(OC)cc1)N(CCCCCC)C(=O)CCl
Echinochloa oryzicola [1]
  Activity: Active

## CCN(C(=O)CCl)C(=C(C)C)c1ccccc1
Echinochloa oryzicola [1]
  Activity: Active
Echinochloa oryzicola [2]
  Activity: Active
